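Tested at 5 concentrations; 48 h exposure; 96-well plates; endpoints linearly interpolated, else capped at highest concentration. GI50 = concentration required for 50% inhibition of growth. TGI marks complete inhibition of growth.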
system: HCC-2998 colon; test: DTP human tumour cell line panel, 48 h

Point of comparison: `Cn1cc(-c2csc(-c3cccc(F)c3)n2)c2cccnc21`, TGI 33.6 µM. Against it:
- CCCCCCCCCCCCCCCCOP(=O)(O)Oc1ccc(/C=C\c2ccc(OP(=O)(O)OCCCCCCCCCCCCCCCC)cc2)cc1 — higher, > 100 µM
- CCN(CC)C(=O)C/C(C)=N/NC(=O)c1ccncc1 — higher, > 100 µM
- Cc1c2c(nn1-c1ccc(S(=O)(=O)/N=C3\SCC(=O)N3C(=O)c3ccccc3)cc1)-c1ccccc1CC2 — higher, > 100 µM
- CN(C)C(=S)/N=c1\ss/c(=N\C(=S)N(C)C)n1-c1ccc2c(c1)OCO2 — higher, > 100 µM
- COC(=O)C(=O)C(C(=O)C(=O)Nc1ccc(C)cc1C)c1nc2ccccc2[nH]c1=O (stereo unspecified) — higher, > 100 µM
- Cc1ccc(N=NC(C(=O)c2ccccc2)C(=O)c2ccccc2)cc1 — higher, > 100 µM
- Cc1ccc(NC(=O)C2C(=O)N(c3ccc(C)c(C)c3)C(=O)/C2=N/O)cc1C (stereo unspecified) — higher, > 100 µM
- C#CC[C@]12CC(=O)CC[C@H]1CC(=O)C2 — higher, > 100 µM
- CNC=O.[O]=[Ge].[O]=[Ge].[O]=[Ge].[O]=[Ge][OH].[O]=[Ge][OH] — higher, > 100 µM
- N#CCCN(c1ccc(/C=C2\N=C(c3ccc(Cl)cc3)OC2=O)cc1)S(=O)(=O)c1ccccc1 — higher, > 100 µM
- Cc1cc(NS(=O)(=O)c2ccc(NC(=O)c3cccc4c(=O)c5ccccc5[nH]c34)cc2)no1 — higher, > 100 µM
- O=C(/C=C/c1ccccc1Cl)c1ccccc1Cl — within 1.5-fold, 39.1 µM
- COC(=O)C1=C(c2ccc3c(c2)OCO3)O[C@H](c2ccc3c(c2)OCO3)[C@H]1COC(C)=O — higher, > 100 µM
- CC(C)=[CH][Sb]([Br])([CH]=C(C)C)([CH]=C(C)C)[CH]=C(C)C — higher, > 100 µM
- CCOC(=O)[C@H]1Nc2ccc(C)cc2C2c3ccccc3CC21 (stereo partly specified) — higher, > 100 µM
- N#CCCN(CCC#N)c1ccc(/C=C2\N=C(CN3C(=O)c4ccccc4C3=O)OC2=O)cc1 — higher, > 100 µM
- CSc1nc(NC2OC(COC(C)=O)C(OC(C)=O)C(OC(C)=O)C2OC(C)=O)c2c(OC(C)=O)c(C)c(=O)oc2n1 (stereo unspecified) — higher, > 100 µM
- O=C(NC1CCCCCC1)C1C(=O)N(C2CCCCCC2)C(=O)/C1=N\O (stereo unspecified) — within 1.5-fold, 40.2 µM
- COc1ccc(C(=O)O)c(Cc2cccc3ccccc23)c1 — higher, > 100 µM
- CC#CC(=O)Nc1ccccc1CC(c1c[nH]c2ccccc12)c1c[nH]c2ccccc12 — within 1.5-fold, 32.7 µM
- NCCCNCCSSCCCCS(=O)O — higher, > 100 µM
- COC(=O)C(=O)C(C(=O)C=C(C)C)C(=O)C(=O)Nc1ccc(Cl)cc1C (stereo unspecified) — higher, > 100 µM
- Cc1cccc(C(C)(C)C)c1NC(=O)CCc1n[nH]c(=S)o1 — higher, > 100 µM
- Cc1ccc(C(=O)/C=C/c2ccccc2O)c(C)c1 — higher, > 100 µM
- O=S(O)CCCCSSCCCCSSCCCCS(=O)O — higher, > 100 µM
- N#Cc1cnsc1 — higher, > 100 µM
- CC(=O)SCCC1c2[nH]c3ccccc3c2CCN1O (stereo unspecified) — higher, > 100 µM
- CCOC(=O)NC(=O)c1cn(CCCOC(=O)NCCCCCCNC(=O)OCCCn2c(=O)c(C(=O)NC(=O)OCC)cn(C)c2=O)c(=O)n(C)c1=O — higher, > 100 µM
- O=C1C2=C(CC3C(C2)C3(Br)Br)C(=O)C2=C1CC1C(C2)C1(Br)Br (stereo unspecified) — higher, > 100 µM
- CC(C)=CC(=O)N1CCN(C(=O)C=C(C)C)CC1 — higher, > 100 µM
- CCCCC/C=C/C/C=C/CCCCCCCC1=NC(C)(C)CN1C(C)C — 11-fold lower, 3.06 µM
- CC(=O)c1ccc(NC(=O)/C(Cc2ccccn2)=N/NC(=O)C[N+](C)(C)C)cc1 — higher, > 100 µM
- CCc1cccc(C)c1NC(C)=O — higher, > 100 µM
- O=C(CC(=O)N1N=C(c2ccccc2)C(N=Nc2ccc(Cl)cc2)C1=O)Nc1ccccc1Cl (stereo unspecified) — higher, > 100 µM

Point of comparison: `CC(C)=[CH][Sb]([Br])([CH]=C(C)C)([CH]=C(C)C)[CH]=C(C)C`, GI50 26 µM. Against it:
- Cc1c2c(nn1-c1ccc(S(=O)(=O)/N=C3\SCC(=O)N3C(=O)c3ccccc3)cc1)-c1ccccc1CC2 — 3.8-fold higher, 98.6 µM
- Cn1cc(-c2csc(-c3cccc(F)c3)n2)c2cccnc21 — within 1.5-fold, 18.9 µM
- CCCCC/C=C/C/C=C/CCCCCCCC1=NC(C)(C)CN1C(C)C — 16-fold lower, 1.67 µM

system: SNB-19 CNS; test: DTP human tumour cell line panel, 48 h

Point of comparison: `CCCCC/C=C/C/C=C/CCCCCCCC1=NC(C)(C)CN1C(C)C`, GI50 1.59 µM. Against it:
- CC(C)(C)OC(=O)N(CCCN(CCn1c2c(c3ccccc3c1=O)C(=O)c1ccccc1-2)C(=O)OC(C)(C)C)CCn1c2c(c3ccccc3c1=O)C(=O)c1ccccc1-2 — higher, > 50 µM
- Cn1cc(-c2csc(-c3cccc(F)c3)n2)c2cccnc21 — 13-fold higher, 20.1 µM
- CC(C)=[CH][Sb]([Br])([CH]=C(C)C)([CH]=C(C)C)[CH]=C(C)C — 9.2-fold higher, 14.7 µM
- C[C@]12CC[C@@H]3c4ccc(Oc5nc(N6CC6)nc(N6CC6)n5)cc4CC[C@H]3[C@@H]1CCC2=O — 4.6-fold higher, 7.25 µM
- COc1cc(C(=O)O[C@H](C(N)=O)[C@]2(C)CO2)c2ccccc2c1 — 9.9-fold higher, 15.8 µM
- CCCCn1c(-c2ccc(C(=O)O/N=C(\N)c3ccc(OC)cc3)cc2)nc(-c2ccccc2)c1-c1ccccc1 — within 1.5-fold, 1.91 µM

Point of comparison: `Cn1cc(-c2csc(-c3cccc(F)c3)n2)c2cccnc21`, TGI 54.4 µM. Against it:
- CC(C)(C)OC(=O)N(CCCN(CCn1c2c(c3ccccc3c1=O)C(=O)c1ccccc1-2)C(=O)OC(C)(C)C)CCn1c2c(c3ccccc3c1=O)C(=O)c1ccccc1-2 — not separable, > 50 µM
- CCCCCCCCCCCCCCCCOP(=O)(O)Oc1ccc(/C=C\c2ccc(OP(=O)(O)OCCCCCCCCCCCCCCCC)cc2)cc1 — higher, > 100 µM
- CN(C)C(=S)/N=c1\ss/c(=N\C(=S)N(C)C)n1-c1ccc2c(c1)OCO2 — higher, > 100 µM
- COC(=O)C(=O)C(C(=O)C(=O)Nc1ccc(C)cc1C)c1nc2ccccc2[nH]c1=O (stereo unspecified) — higher, > 100 µM
- Cc1ccc(N=NC(C(=O)c2ccccc2)C(=O)c2ccccc2)cc1 — 1.6-fold higher, 86.4 µM
- Cc1ccc(NC(=O)C2C(=O)N(c3ccc(C)c(C)c3)C(=O)/C2=N/O)cc1C (stereo unspecified) — higher, > 100 µM
- Nc1c(-c2ccc(Br)cc2)[n+]([O-])c2ccccc2[n+]1[O-] — higher, > 100 µM
- C#CC[C@]12CC(=O)CC[C@H]1CC(=O)C2 — higher, > 100 µM
- CNC=O.[O]=[Ge].[O]=[Ge].[O]=[Ge].[O]=[Ge][OH].[O]=[Ge][OH] — higher, > 100 µM
- N#CCCN(c1ccc(/C=C2\N=C(c3ccc(Cl)cc3)OC2=O)cc1)S(=O)(=O)c1ccccc1 — higher, > 100 µM
- Cc1cc(NS(=O)(=O)c2ccc(NC(=O)c3cccc4c(=O)c5ccccc5[nH]c34)cc2)no1 — higher, > 100 µM
- O=C(/C=C/c1ccccc1Cl)c1ccccc1Cl — 1.7-fold lower, 32.8 µM
- CC(C)=[CH][Sb]([Br])([CH]=C(C)C)([CH]=C(C)C)[CH]=C(C)C — 1.6-fold higher, 89.4 µM
- CCOC(=O)[C@H]1Nc2ccc(C)cc2C2c3ccccc3CC21 (stereo partly specified) — higher, > 100 µM
- COc1cc([N+](=O)[O-])ccc1NC(=O)C(F)(F)F — higher, > 100 µM
- N#CCCN(CCC#N)c1ccc(/C=C2\N=C(CN3C(=O)c4ccccc4C3=O)OC2=O)cc1 — higher, > 100 µM
- CSc1nc(NC2OC(COC(C)=O)C(OC(C)=O)C(OC(C)=O)C2OC(C)=O)c2c(OC(C)=O)c(C)c(=O)oc2n1 (stereo unspecified) — higher, > 100 µM
- O=C(NC1CCCCCC1)C1C(=O)N(C2CCCCCC2)C(=O)/C1=N\O (stereo unspecified) — higher, > 100 µM
- O=C(O)C1C(C(=O)O)C(C(=O)O)C1C(=O)O (stereo unspecified) — higher, > 100 µM
- COc1ccc(C(=O)O)c(Cc2cccc3ccccc23)c1 — higher, > 100 µM
- CC#CC(=O)Nc1ccccc1CC(c1c[nH]c2ccccc12)c1c[nH]c2ccccc12 — within 1.5-fold, 45.6 µM
- NCCCNCCSSCCCCS(=O)O — higher, > 100 µM
- COC(=O)C(=O)C(C(=O)C=C(C)C)C(=O)C(=O)Nc1ccc(Cl)cc1C (stereo unspecified) — higher, > 100 µM
- C[C@]12CC[C@@H]3c4ccc(Oc5nc(N6CC6)nc(N6CC6)n5)cc4CC[C@H]3[C@@H]1CCC2=O — 2.5-fold lower, 21.5 µM
- COc1cc(C(=O)O[C@H](C(N)=O)[C@]2(C)CO2)c2ccccc2c1 — 1.8-fold lower, 30.3 µM
- Cc1cccc(C(C)(C)C)c1NC(=O)CCc1n[nH]c(=S)o1 — higher, > 100 µM
- Cc1ccc(C(=O)/C=C/c2ccccc2O)c(C)c1 — higher, > 100 µM
- O=S(O)CCCCSSCCCCSSCCCCS(=O)O — higher, > 100 µM
- CC(=O)SCCC1c2[nH]c3ccccc3c2CCN1O (stereo unspecified) — higher, > 100 µM
- CCCCn1c(-c2ccc(C(=O)O/N=C(\N)c3ccc(OC)cc3)cc2)nc(-c2ccccc2)c1-c1ccccc1 — 11-fold lower, 5.01 µM
- O=C1C2=C(CC3C(C2)C3(Br)Br)C(=O)C2=C1CC1C(C2)C1(Br)Br (stereo unspecified) — higher, > 100 µM
- CC(C)=CC(=O)N1CCN(C(=O)C=C(C)C)CC1 — higher, > 100 µM
- CCCCC/C=C/C/C=C/CCCCCCCC1=NC(C)(C)CN1C(C)C — 18-fold lower, 3 µM
- CC(=O)c1ccc(NC(=O)/C(Cc2ccccn2)=N/NC(=O)C[N+](C)(C)C)cc1 — higher, > 100 µM
- O=C(CC(=O)N1N=C(c2ccccc2)C(N=Nc2ccc(Cl)cc2)C1=O)Nc1ccccc1Cl (stereo unspecified) — within 1.5-fold, 61 µM

system: SF-268 CNS; test: DTP human tumour cell line panel, 48 h

Point of comparison: `Cn1cc(-c2csc(-c3cccc(F)c3)n2)c2cccnc21`, GI50 17.3 µM. Against it:
- CC(C)(C)OC(=O)N(CCCN(CCn1c2c(c3ccccc3c1=O)C(=O)c1ccccc1-2)C(=O)OC(C)(C)C)CCn1c2c(c3ccccc3c1=O)C(=O)c1ccccc1-2 — 1.6-fold higher, 28.2 µM
- Cc1c2c(nn1-c1ccc(S(=O)(=O)/N=C3\SCC(=O)N3C(=O)c3ccccc3)cc1)-c1ccccc1CC2 — 2.6-fold higher, 44.6 µM

Point of comparison: `O=C(/C=C/c1ccccc1Cl)c1ccccc1Cl`, TGI 50.5 µM. Against it:
- CC(C)(C)OC(=O)N(CCCN(CCn1c2c(c3ccccc3c1=O)C(=O)c1ccccc1-2)C(=O)OC(C)(C)C)CCn1c2c(c3ccccc3c1=O)C(=O)c1ccccc1-2 — not separable, > 50 µM
- CCCCCCCCCCCCCCCCOP(=O)(O)Oc1ccc(/C=C\c2ccc(OP(=O)(O)OCCCCCCCCCCCCCCCC)cc2)cc1 — higher, > 100 µM
- CCN(CC)C(=O)C/C(C)=N/NC(=O)c1ccncc1 — higher, > 100 µM
- Cc1c2c(nn1-c1ccc(S(=O)(=O)/N=C3\SCC(=O)N3C(=O)c3ccccc3)cc1)-c1ccccc1CC2 — higher, > 100 µM
- CN(C)C(=S)/N=c1\ss/c(=N\C(=S)N(C)C)n1-c1ccc2c(c1)OCO2 — higher, > 100 µM
- COC(=O)C(=O)C(C(=O)C(=O)Nc1ccc(C)cc1C)c1nc2ccccc2[nH]c1=O (stereo unspecified) — higher, > 100 µM
- Cn1cc(-c2csc(-c3cccc(F)c3)n2)c2cccnc21 — 1.6-fold lower, 32.1 µM
- Cc1ccc(N=NC(C(=O)c2ccccc2)C(=O)c2ccccc2)cc1 — higher, > 100 µM
- Cc1ccc(NC(=O)C2C(=O)N(c3ccc(C)c(C)c3)C(=O)/C2=N/O)cc1C (stereo unspecified) — higher, > 100 µM
- Nc1c(-c2ccc(Br)cc2)[n+]([O-])c2ccccc2[n+]1[O-] — higher, > 100 µM
- C#CC[C@]12CC(=O)CC[C@H]1CC(=O)C2 — higher, > 100 µM
- CNC=O.[O]=[Ge].[O]=[Ge].[O]=[Ge].[O]=[Ge][OH].[O]=[Ge][OH] — higher, > 100 µM
- N#CCCN(c1ccc(/C=C2\N=C(c3ccc(Cl)cc3)OC2=O)cc1)S(=O)(=O)c1ccccc1 — higher, > 100 µM
- Cc1cc(NS(=O)(=O)c2ccc(NC(=O)c3cccc4c(=O)c5ccccc5[nH]c34)cc2)no1 — higher, > 100 µM
- COC(=O)C1=C(c2ccc3c(c2)OCO3)O[C@H](c2ccc3c(c2)OCO3)[C@H]1COC(C)=O — higher, > 100 µM
